This note sets out measurements from patent EP2848693A1, “Concatenation of halogenated alkenyl diphosphate derivatives” (LANXESS Deutschland GmbH, priority 2013, dated 2015).

Molecules are shown by their SMILES.

Holding throughout (format): biochemical
In assay [1] the target is T1, E. coli Undecaprenyldiphosphatsynthase (EcUPPS) (Escherichia coli, UniProt P60472).
T1 construct: made in house; host or cells: E. coli
T1 sequence (P60472 1-253): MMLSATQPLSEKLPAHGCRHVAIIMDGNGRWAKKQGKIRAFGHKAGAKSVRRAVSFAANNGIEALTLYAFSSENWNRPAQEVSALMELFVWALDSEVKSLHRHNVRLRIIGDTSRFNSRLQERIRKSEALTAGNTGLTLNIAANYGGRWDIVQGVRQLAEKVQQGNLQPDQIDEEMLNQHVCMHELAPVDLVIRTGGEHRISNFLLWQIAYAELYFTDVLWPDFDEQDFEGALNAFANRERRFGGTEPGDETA
In words: MTP phosphate detection assay (diphosphate release, BIOMOL Green), substrate kinetics. The settings on record: elongation substrate varied, starter FPP 10 µM. As to the method: (§1) Cis-Prenyltransferasen entlassen während der Reaktion Diphosphat nach jedem Kondensationsschritt. Dies ist der Ansatzpunkt, der gewählt wurde, um unabhängig von der Art des Produktes den Grundumsatz zu detektieren. […] Die Dreifachbestimmungen der Enzymreaktionen wurden mit 100 µL BIOMOL Green™ Detektionsreagenz gestoppt und nach weiteren 20 min in einem Mikrotiterplattenspektrophotometer bei 620 nm gemessen. Zur Kontrolle erfolgte für jede Substratkonzentration eine Messung mit denaturiertem Enzym zu den unterschiedlichen Zeitpunkten um Selbsthydrolyse der Substrate zu berücksichtigen. Zur Quantifizierung wurde eine Pi-Standardkurve in Doppelbestimmung mitgeführt. Die Verdünnung des KPi-Standards erfolgte in Assaypuffer, wurde mit 100 µL BIOMOL Green™ Detektionsreagenz nach Ablauf der Enzymreaktion in den Test-Wells detektiert und zeitgleich nach weiteren 20 min bei 620 nm gemessen. Eine lineare Beziehung zwischen A620 nm und Pi-Konzentration ermöglichte eine Quantifizierung zwischen 80 µM-0 µM Pi.
(§2) Die Bestimmung der FPP-Kinetiken der EcUPPS sowie der ThkCPT erfolgte unter analogen Bedingungen der Bestimmung von IPP. […] Die Enzymreaktion wurde nach 60 s, 120 s, 180 s, 300 s, 600 s, 900 s oder 1200 s durch Zugabe von 100 µL BIOMOL Green™ Detektionsreagenz gestoppt und wie oben beschrieben gemessen.
(§3) Die Assaybedingungen wurden wie in Beispiel 3 beschriebenen gewählt. […] Variation von 500 - 0 µM im Fall der Elongationssubstrate erfolgte konstant mit 10 µM FPP (jedes Homoallyldiphosphat möglich).
(§4) Zur Berechnung der Umsatzraten in nkat·mg^-1 wurde verwendet: ν0 = ((A620-ABlank)⋅1000)/(2⋅m⋅t⋅[E]) [formula] v0 Anfangsgeschwindigkeit der Diphosphathydrolyse (nkat·mg^-1) A620 Absorption bei 620 nm ABlank Absorption der Kontrolle bei 620 nm m Anstieg der Phosphatstandardkurve (µM^-1) t Dauer der Enzymreaktion (s) [E] Enzymkonzentration (mg·L^-1)
(§5) Die Auswertung erfolgte durch nicht-lineare Regression nach der Hill-Gleichung mit Sigma-Plot 11. […] Substratkonzentration (µM) h Hill-Koeffizient

In assay [2] the target is T2, Thermococcus kodakaraensis cis-Prenyltransferase (ThkCPT) (Thermococcus kodakarensis, UniProt Q5JGE1).
T2 construct: made in house; host or cells: E. coli
T2 sequence (Q5JGE1 1-264): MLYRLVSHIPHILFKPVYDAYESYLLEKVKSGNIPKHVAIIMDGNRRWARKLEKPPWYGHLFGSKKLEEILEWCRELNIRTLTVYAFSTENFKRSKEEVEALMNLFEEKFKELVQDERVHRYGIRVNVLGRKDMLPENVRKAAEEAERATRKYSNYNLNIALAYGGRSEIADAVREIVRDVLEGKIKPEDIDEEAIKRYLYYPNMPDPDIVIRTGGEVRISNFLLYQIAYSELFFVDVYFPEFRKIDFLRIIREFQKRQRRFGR
The assay is described as above. The settings on record: elongation substrate varied, starter FPP 10 µM, room temperature. As to the method:
as §1, §2, §3, §4, §5

The target in assay [3] is T3, EcUPPS (Escherichia coli, UniProt P60472).
T3 construct: made in house; host or cells: E. coli
Briefly: Product chain length by HPLC with fluorescent starter substrate 110. The settings on record: 10 µM EcUPPS, 110 as starter substrate, HPLC of hydrolysed products. As for the experimental part:
Zur Bestimmung der Produktkettenlängen wurden 500 µL Enzymassays in MS-Gläschen durchgeführt. […] Die Extraktion der Polyprenyldiphosphate erfolgte mit 500 µL 1-Butanol. Die Butanolphase wurde in ein neues Glas überführt und unter Stickstoffstrom von dem Lösungsmittel befreit. Die Hydrolyse der Diphosphate zum Polyprenol erfolgte durch Zugabe von 200 µL Hydrolysepuffer (20% Isopropanol, 4,4 Units/mL saure Phophatase aus Kartoffeln, 0,1 % Triton X-100, 50 mM Natriumacetat (pH 4,7)) und wurde über Nacht bei 37 °C inkubiert. Die Polyprenole wurden mit 500 µL nHexan extrahiert und zur weiteren DC- oder HPLC-Analyse vorbereitet. Für DC-Experimente und LC/ESI-MS-Analysen wurde die nHexan-Phase in ein neues Glas überführt, das Lösungsmittel abgedampft und die Produkte erneut in 100 µL nHexan resuspendiert um eine Aufkonzentrierung zu erreichen. Für HPLC-Analysen mit 110 ((2E,6E)-8-O-(N-methyl-2-aminobenzoyl)-3,7-dimethyl-2,6-octandien-1-diphosphat) als Startersubstrat wurde die nHexan-Phase 1:3 verdünnt in das HPLC-System mittels Autosampler injiziert.
Die HPLC-Analyse der Polyprenole erfolgte an einer Anlage von Merck HITACHI D-7000, wobei als stationäre Phase eine YMC-ODS AQ (150 x 4 mm, 5 µm; YMC Europe GmbH, Dinslaken) Säule verwendet wurde. Die Elution erfolgte mit 1 mL·min^-1 und die Detektion bei 210 nm mit einem UV-VIS Detektor: Merck HITACHI L-7420. […]

Regarding `C=C(Cl)CCOP(=O)(O)OP(=O)(O)O` [Cl-BPP, 3-Chlor-3-Butenyldiphosphat], the kcat in assay [1] is listed as 0,0009 s^-1; in assay [2], 0,0005 s^-1. For the same compound, the “Kondensationsschritte / Elongationseinheiten” value in assay [3] is listed as 2.
